Results from patent publication US10131652B2, “Pyrimidinyloxy benzene derivatives as herbicides” (E. I. DU PONT DE NEMOURS AND COMPANY, priority 2014, dated 2018).

Legend:
Assay type in all cases: in vivo
[1] = tested on: wheat (Triticum aestivum); assay: Test B pre-/postemergence plant response; conditions: 0 to 100 scale, 0 no effect, 100 complete control
In short: (§1)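 Greenhouse pots, loam/sand soil; compound formulated with surfactant in non-phytotoxic solvent. Preemergence soil spray and postemergence spray at 1–2 leaf stage run simultaneously. Visual injury, 0–100, about 10 days post-treatment.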

[2] = tested on: barnyardgrass (Echinochloa crus-galli); assay: Test B pre-/postemergence plant response
In short: as §1

[3] = tested on: Italian ryegrass (Lolium multiflorum); assay: Test B pre-/postemergence plant response
In short: as §1

[4] = tested on: ragweed (common ragweed, Ambrosia elatior); assay: Test B pre-/postemergence plant response
In short: as §1

[5] = tested on: kochia (Kochia scoparia); assay: Test B pre-/postemergence plant response
In short: as §1

[6] = tested on: giant foxtail (Setaria faberii); assay: Test B pre-/postemergence plant response
In short: as §1

[7] = tested on: pigweed (Amaranthus retroflexus); assay: Test B pre-/postemergence plant response
In short: as §1

[8] = tested on: corn (Zea mays); assay: Test B pre-/postemergence plant response; conditions: 0 to 100 scale, 0 no effect, 100 complete control
In short: as §1

[9] = tested on: wild oat (Avena fatua); assay: Test D postemergence plant response; conditions: for Oat, Wild plant response rating: scale 0 to 100 (0 no effect, 100 complete control); for Plant response rating, Oat, Wild: scale 0 to 100, 0 no effect, 100 complete control
In short: (§2)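 Plants grown in pots of peat moss–vermiculite medium with wetting agent and starter nutrients received postemergence applications of the formulated test chemicals at 2 to 18 cm height (1- to 4-leaf stage). After 13 to 15 days in a greenhouse, injury was scored visually against untreated controls, 0 (no effect) to 100 (complete control).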

[10] = tested on: kochia (Kochia scoparia); assay: Test D postemergence plant response; conditions: for Kochia plant response rating: scale 0 to 100 (0 no effect, 100 complete control); for Plant response rating, Kochia: scale 0 to 100, 0 no effect, 100 complete control
In short: as §2

[11] = tested on: chickweed (common chickweed, Stellaria media); assay: Test D postemergence plant response; conditions: for Chickweed plant response rating: scale 0 to 100 (0 no effect, 100 complete control); for Plant response rating, Chickweed: scale 0 to 100, 0 no effect, 100 complete control
In short: as §2

[12] = tested on: blackgrass (Alopecurus myosuroides); assay: Test B postemergence plant response; conditions: 0 to 100 scale, 0 no effect, 100 complete control
In short: (§3)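 Injury was assessed visually about 10 days after treatment, scored from 0 (no effect) to 100 (complete control) by comparison with untreated controls. Test chemicals had been applied postemergence to potted plants at the one- to two-leaf stage, grown in loam soil and sand in a greenhouse.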

[13] = tested on: galium (catchweed bedstraw, Galium aparine); assay: Test B postemergence plant response; conditions: 0 to 100 scale, 0 no effect, 100 complete control
In short: as §3

[14] = tested on: barnyardgrass (Echinochloa crus-galli); assay: Test C flooded paddy test plant response; conditions: Flood, 250 g ai/ha; scale of 0 to 100 where 0 is no effect and 100 is complete control; 13 to 15 days
In short: (§4)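 Scored visually on a 0–100 scale (100 = complete control) against untreated plants 13 to 15 days after treatment in the greenhouse. Compounds went into paddy water of pots flooded to 3 cm, holding 2-leaf-stage plants.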

[15] = tested on: small-flower umbrella sedge (Cyperus difformis); assay: Test C flooded paddy test plant response; conditions: Flood, 250 g ai/ha; scale of 0 to 100 where 0 is no effect and 100 is complete control; 13 to 15 days
In short: as §4

[16] = tested on: ducksalad (Heteranthera limosa); assay: Test C flooded paddy test plant response; conditions: Flood, 250 g ai/ha; scale of 0 to 100 where 0 is no effect and 100 is complete control; 13 to 15 days
In short: as §4

[17] = tested on: rice (Oryza sativa); assay: Test C flooded paddy test plant response; conditions: Flood, 250 g ai/ha; scale of 0 to 100 where 0 is no effect and 100 is complete control; 13 to 15 days
In short: as §4

[18] = 31 g ai/ha, Postemergence, 0 to 100 scale, 0 no effect, 100 complete control
[19] = 31 g ai/ha, Preemergence, 0 to 100 scale where 0 is no effect and 100 is complete control
[20] = 125 g ai/ha, postemergence, 0 to 100 scale, 0 no effect, 100 complete control
[21] = Preemergence, 125 g ai/ha, 0 to 100 scale where 0 is no effect and 100 is complete control

## Fc1ccc(Oc2ncc(Cl)cn2)c(-c2cc(C(F)F)on2)c1F [Compound 113]
[1]; 31 g ai/ha, Postemergence
  Plant response rating, Wheat: 0
[1]; 125 g ai/ha, postemergence
  Plant response rating, Wheat: 10
[2]; [18]
  Plant response rating, Barnyardgrass: 60
[2]; [19]
  Plant response rating, Barnyardgrass: 70
[2]; [20]
  Plant response rating, Barnyardgrass: 90
[2]; [21]
  Plant response rating, Barnyardgrass: 100
[3]; [18]
  Plant response rating, Ryegrass, Italian: 20
[3]; [19]
  Plant response rating, Ryegrass, Italian: 10
[3]; [20]
  Plant response rating, Ryegrass, Italian: 70
[4]; [18]
  Plant response rating, Ragweed: 50
[4]; [19]
  Plant response rating, Ragweed: 30
[4]; [20]
  Plant response rating, Ragweed: 80
[5]; [18]
  Plant response rating, Kochia: 100
[5]; [19]
  Plant response rating, Kochia: 100
[5]; [20]
  Plant response rating, Kochia: 100
[5]; [21]
  Plant response rating, Kochia: 100
[6]; [18]
  Plant response rating, Foxtail, Giant: 60
[6]; [19]
  Plant response rating, Foxtail, Giant: 90
[6]; [20]
  Plant response rating, Foxtail, Giant: 90
[6]; [21]
  Plant response rating, Foxtail, Giant: 100
[7]; [18]
  Plant response rating, Pigweed: 100
[7]; [19]
  Plant response rating, Pigweed: 100
[7]; [20]
  Plant response rating, Pigweed: 100
[8]; 31 g ai/ha, Postemergence
  Plant response rating, Corn: 10
[8]; 125 g ai/ha, postemergence
  Plant response rating, Corn: 30
[9]; 16 g ai/ha
  Oat, Wild plant response rating: 10
[9]; 31 g ai/ha
  Oat, Wild plant response rating: 15
[9]; 62 g ai/ha
  Plant response rating, Oat, Wild: 10
[9]; 125 g ai/ha
  Plant response rating, Oat, Wild: 25
[10]; 16 g ai/ha
  Kochia plant response rating: 90
[10]; 31 g ai/ha
  Kochia plant response rating: 100
[10]; 62 g ai/ha
  Plant response rating, Kochia: 100
[10]; 125 g ai/ha
  Plant response rating, Kochia: 100
[11]; 16 g ai/ha
  Chickweed plant response rating: 70
[11]; 31 g ai/ha
  Chickweed plant response rating: 85
[11]; 62 g ai/ha
  Plant response rating, Chickweed: 90
[11]; 125 g ai/ha
  Plant response rating, Chickweed: 95
[12]; 31 g ai/ha, Postemergence
  Plant response rating, Blackgrass: 60
[12]; 125 g ai/ha, postemergence
  Plant response rating, Blackgrass: 90
[13]; 31 g ai/ha, Postemergence
  Plant response rating, Galium: 90
[13]; 125 g ai/ha, postemergence
  Plant response rating, Galium: 100
[14]
  Barnyardgrass plant response rating: 0
[15]
  Sedge, Umbrella plant response rating: 95
[16]
  Ducksalad plant response rating: 95
[17]
  Rice plant response rating: 15

## FC(Cl)c1cc(-c2ccccc2Oc2ncc(Cl)cn2)no1 (stereo not drawn) [Compound 116]
[1]; 31 g ai/ha, Postemergence
  Plant response rating, Wheat: 10
[1]; 125 g ai/ha, postemergence
  Plant response rating, Wheat: 20
[2]; [18]
  Plant response rating, Barnyardgrass: 10
[2]; [19]
  Plant response rating, Barnyardgrass: 0
[2]; [20]
  Plant response rating, Barnyardgrass: 30
[2]; [21]
  Plant response rating, Barnyardgrass: 30
[3]; [18]
  Plant response rating, Ryegrass, Italian: 0
[3]; [19]
  Plant response rating, Ryegrass, Italian: 0
[3]; [20]
  Plant response rating, Ryegrass, Italian: 30
[4]; [18]
  Plant response rating, Ragweed: 20
[4]; [19]
  Plant response rating, Ragweed: 0
[4]; [20]
  Plant response rating, Ragweed: 40
[5]; [18]
  Plant response rating, Kochia: 90
[5]; [19]
  Plant response rating, Kochia: 60
[5]; [20]
  Plant response rating, Kochia: 90
[5]; [21]
  Plant response rating, Kochia: 60
[6]; [18]
  Plant response rating, Foxtail, Giant: 20
[6]; [19]
  Plant response rating, Foxtail, Giant: 40
[6]; [20]
  Plant response rating, Foxtail, Giant: 90
[6]; [21]
  Plant response rating, Foxtail, Giant: 90
[7]; [18]
  Plant response rating, Pigweed: 100
[7]; [19]
  Plant response rating, Pigweed: 70
[7]; [20]
  Plant response rating, Pigweed: 100
[8]; 31 g ai/ha, Postemergence
  Plant response rating, Corn: 20
[8]; 125 g ai/ha, postemergence
  Plant response rating, Corn: 40
[9]; 16 g ai/ha
  Oat, Wild plant response rating: 5
[9]; 31 g ai/ha
  Oat, Wild plant response rating: 5
[9]; 62 g ai/ha
  Plant response rating, Oat, Wild: 10
[9]; 125 g ai/ha
  Plant response rating, Oat, Wild: 15
[10]; 16 g ai/ha
  Kochia plant response rating: 100
[10]; 31 g ai/ha
  Kochia plant response rating: 100
[10]; 62 g ai/ha
  Plant response rating, Kochia: 100
[10]; 125 g ai/ha
  Plant response rating, Kochia: 100
[11]; 16 g ai/ha
  Chickweed plant response rating: 5
[11]; 31 g ai/ha
  Chickweed plant response rating: 15
[11]; 62 g ai/ha
  Plant response rating, Chickweed: 30
[11]; 125 g ai/ha
  Plant response rating, Chickweed: 90
[12]; 31 g ai/ha, Postemergence
  Plant response rating, Blackgrass: 20
[12]; 125 g ai/ha, postemergence
  Plant response rating, Blackgrass: 30
[13]; 31 g ai/ha, Postemergence
  Plant response rating, Galium: 60
[13]; 125 g ai/ha, postemergence
  Plant response rating, Galium: 70
[14]
  Barnyardgrass plant response rating: 0
[15]
  Sedge, Umbrella plant response rating: 90
[16]
  Ducksalad plant response rating: 95
[17]
  Rice plant response rating: 30
